Assay [1] concerns the target T1, Human PD-L1/PD-1 (Homo sapiens, UniProt Q9NZQ7).
T1 construct: made in house; host or cells: HEK293T
As to the kind of experiment: HTRF PD-1-Ig/PD-L1-His binding assay (human PD-L1). The gist of the method: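 Soluble PD-1-Ig binding to PD-L1-His measured by HTRF in dPBS with 0.1% BSA and 0.05% Tween-20. Detection used europium cryptate anti-Ig antibody (1 nM final) and APC anti-His antibody (20 nM final) added on top of the binding reaction.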

In assay [2] the target is T2, LK35.2-hPD-L1 cells / PE-labeled PD-1-Ig (Homo sapiens, UniProt Q9NZQ7).
T2 construct: expressed in transfected cells; host or cells: LK35.2 mouse B cell line
T2 sequence (Q9NZQ7 19-290): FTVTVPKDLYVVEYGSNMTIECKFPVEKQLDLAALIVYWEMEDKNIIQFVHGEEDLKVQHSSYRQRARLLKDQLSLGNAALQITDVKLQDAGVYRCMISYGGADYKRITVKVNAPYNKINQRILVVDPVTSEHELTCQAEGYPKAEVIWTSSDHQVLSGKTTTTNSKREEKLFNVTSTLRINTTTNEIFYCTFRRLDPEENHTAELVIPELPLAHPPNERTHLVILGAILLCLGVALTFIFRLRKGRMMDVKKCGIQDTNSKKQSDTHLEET
As to the kind of experiment: LK35.2-hPD-L1 cell binding high-content screening assay. Format: cell-based. The conditions noted are these: cell binding assay, cell line not given. In a few lines:
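Fluorescent PD-1-Ig binding to PD-L1-expressing LK35.2 cells, imaged after washing. Conditions: 1 nM PE-PD-1-Ig, 37 °C, 1 h, RPMI with 10% fetal calf serum.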

The mark [3] stands for this setting: cluster symbol, read-out: HTRF IC50 cluster.
[4] abbreviates: cluster symbol, read-out: CBA IC50 cluster.
Where [5] appears, read: numeric value, read-out: HTRF IC50 values.
Setting [6] is: numeric value, read-out: CBA IC50 values.

Read-outs that look alike come from different tables or passages of the source. Positions of bridges follow the written chain, without caps; N, C: chain ends. Non-standard residues stand in square brackets, D forms with d. Residues, ends and D or L forms follow the SMILES beside them. ξ: configuration not given here. Pro(5S-Me) = C[C@H]1CC[C@@H](C(=O)O)N1; Bta = N[C@@H](Cc1csc2ccccc12)C(=O)O; Hyp = O=C(O)[C@@H]1C[C@@H](O)CN1; NMehSer = CN[C@@H](CCO)C(=O)O; NMeNle = CCCC[C@H](NC)C(=O)O; NMeA = CN[C@@H](C)C(=O)O; ξhCys = NC(CCS)C(=O)O; ξC = NC(CS)C(=O)O

For eleven compounds, IC50 results are on record in patent US9850283B2, “Macrocyclic inhibitors of the PD-1/PD-L1 and CD80(B7-1)/PD-L1 protein/protein interactions” (BRISTOL-MYERS SQUIBB COMPANY, priority 2013, dated 2017).

T1 sequence (Q9NZQ7 with tags, fused parts or gaps): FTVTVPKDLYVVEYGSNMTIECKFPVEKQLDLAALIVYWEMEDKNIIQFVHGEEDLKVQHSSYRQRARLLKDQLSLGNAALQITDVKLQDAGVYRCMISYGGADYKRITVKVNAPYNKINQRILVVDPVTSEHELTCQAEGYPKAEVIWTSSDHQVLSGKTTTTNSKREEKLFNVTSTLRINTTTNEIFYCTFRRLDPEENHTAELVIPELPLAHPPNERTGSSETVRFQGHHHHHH

For `CCCC[C@H]1C(=O)N(C)[C@@H](CCOC)C(=O)N[C@@H](CCCNC(=N)N)C(=O)NC(C(=O)NCC(N)=O)CSCC(=O)N[C@@H](Cc2ccc(O)cc2)C(=O)N(C)[C@@H](C)C(=O)N[C@@H](CC(=O)O)C(=O)N2CCC[C@H]2C(=O)N[C@@H](Cc2cnc[nH]2)C(=O)N[C@@H](CC(C)C)C(=O)N2CCC[C@H]2C(=O)N[C@@H](Cc2c[nH]c3ccccc23)C(=O)N[C@@H](CO)C(=O)N[C@@H](Cc2csc3ccccc23)C(=O)N1C` (stereo partly shown) [Example 9008] ({CH2CO}-Y[NMeA]DPHLPWS[Bta][NMeNle][NMehSer](Me)R[ξC]G-NH2; thioether N-14), the half-maximal inhibitory concentration (IC50) (commonly the midpoint of a concentration-inhibition curve) in assay [1] (setting [3]) lay in the range of 0.385 to 6.74 nM; in assay [2] (setting [4]), 0.158 to 4.71 nM.
In the same order, the values of `CCCC[C@H]1C(=O)N[C@@H](CCCNC(=N)N)C(=O)NC(C(=O)NCC(N)=O)CSCC(=O)N[C@@H](Cc2ccc(O)cc2)C(=O)N(C)[C@@H](C)C(=O)N[C@@H](CC(=O)O)C(=O)N2CCC[C@H]2C(=O)N[C@@H](Cc2cnc[nH]2)C(=O)N[C@@H](CC(C)C)C(=O)N2CCC[C@H]2C(=O)N[C@@H](Cc2c[nH]c3ccccc23)C(=O)N[C@@H](CO)C(=O)N[C@@H](Cc2csc3ccccc23)C(=O)N(C)[C@@H](CCOC)C(=O)N1C` (stereo partly shown) [Example 9009] ({CH2CO}-Y[NMeA]DPHLPWS[Bta][NMehSer](Me)[NMeNle]R[ξC]G-NH2; thioether N-14) are 6.76 to 30.3 nM and 4.78 to 72.9 nM.
In the same order, the values of `CCCC[C@H]1C(=O)N[C@@H](CCCNC(=N)N)C(=O)NC(C(=O)NCC(N)=O)CSCC(=O)N[C@@H](Cc2ccc(O)cc2)C(=O)N(C)[C@@H](C)C(=O)N[C@@H](CC(=O)O)C(=O)N2CCC[C@H]2C(=O)N[C@@H](Cc2cnc[nH]2)C(=O)N[C@@H](CC(C)C)C(=O)N2CCC[C@H]2C(=O)N[C@@H](Cc2c[nH]c3ccccc23)C(=O)N[C@@H](CO)C(=O)N[C@@H](Cc2c[nH]c3ccccc23)C(=O)N(C)[C@@H](CCOC)C(=O)N1C` (stereo partly shown) [Example 9010] ({CH2CO}-Y[NMeA]DPHLPWSW[NMehSer](Me)[NMeNle]R[ξC]G-NH2; thioether N-14) are 6.76 to 30.3 nM and 4.78 to 72.9 nM.
Regarding `CCCC[C@H]1C(=O)N(C)[C@@H](CCCC)C(=O)N[C@@H](CCCNC(=N)N)C(=O)NC(C(=O)NCC(N)=O)CSCC(=O)N[C@@H](Cc2ccc(O)cc2)C(=O)N(C)[C@@H](C)C(=O)N[C@@H](CC(N)=O)C(=O)N2C[C@H](O)C[C@H]2C(=O)N[C@@H](Cc2cnc[nH]2)C(=O)N[C@@H](CC(C)C)C(=O)N2CCC[C@H]2C(=O)N[C@@H](Cc2c[nH]c3ccccc23)C(=O)N[C@@H](CO)C(=O)N[C@@H](Cc2c[nH]c3ccccc23)C(=O)N1C` (stereo partly shown) [Example 9011] ({CH2CO}-Y[NMeA]N[Hyp]HLPWSW[NMeNle][NMeNle]R[ξC]G-NH2; thioether N-14), the values for the IC50 in assay [1] (setting [5]) and in assay [2] (setting [6]) were 9.4 nM and 13.5 nM, respectively.
For `CCCC[C@H]1C(=O)N(C)[C@@H](CCCC)C(=O)N[C@@H](CCCNC(=N)N)C(=O)NC(C(=O)NCC(N)=O)CSCC(=O)N[C@@H](Cc2ccc(O)cc2)C(=O)N(C)[C@@H](C)C(=O)N[C@@H](CC(N)=O)C(=O)N2C[C@H](O)C[C@H]2C(=O)N[C@@H](Cc2cnc[nH]2)C(=O)N[C@@H](CC(C)C)C(=O)N2C[C@H](O)C[C@H]2C(=O)N[C@@H](Cc2c[nH]c3ccccc23)C(=O)N[C@@H](CO)C(=O)N[C@@H](Cc2csc3ccccc23)C(=O)N1C` (stereo partly shown) [Example 9012] ({CH2CO}-Y[NMeA]N[Hyp]HL[Hyp]WS[Bta][NMeNle][NMeNle]R[ξC]G-NH2; thioether N-14), the values for the concentration for half-maximal inhibition (IC50) in assay [1] (setting [3]) and in assay [2] (setting [4]) were 6.76 to 30.3 nM and 0.158 to 4.71 nM, respectively.
Consider `CCCC[C@H]1C(=O)N(C)[C@@H](CCCC)C(=O)N[C@@H](CCCNC(=N)N)C(=O)NC(C(=O)NCC(N)=O)CSCC(=O)N[C@@H](Cc2ccc(O)cc2)C(=O)N(C)[C@@H](C)C(=O)N[C@@H](CC(N)=O)C(=O)N2C[C@H](O)C[C@H]2C(=O)N[C@@H](Cc2cnc[nH]2)C(=O)N[C@@H](CC(C)C)C(=O)N2C[C@H](O)C[C@H]2C(=O)N[C@@H](Cc2c[nH]c3ccccc23)C(=O)N[C@@H](CO)C(=O)N[C@@H](Cc2c[nH]c3ccccc23)C(=O)N1C` (stereo partly shown) [Example 9013] ({CH2CO}-Y[NMeA]N[Hyp]HL[Hyp]WSW[NMeNle][NMeNle]R[ξC]G-NH2; thioether N-14), for which the half-inhibitory concentration (IC50) was 8.11 nM in assay [1] (setting [5]) and 5.97 nM in assay [2] (setting [6]).
`CCCC[C@H]1C(=O)N(C)[C@@H](CCCC)C(=O)N[C@@H](CCCNC(=N)N)C(=O)NC(C(=O)NCC(N)=O)CSCC(=O)N[C@@H](Cc2ccc(O)cc2)C(=O)N(C)[C@@H](C)C(=O)N[C@@H](CC(N)=O)C(=O)N2CCC[C@H]2C(=O)N[C@@H](Cc2cnc[nH]2)C(=O)N[C@@H](CC(C)C)C(=O)N2[C@@H](C)CC[C@H]2C(=O)N[C@@H](Cc2c[nH]c3ccccc23)C(=O)N[C@@H](CO)C(=O)N[C@@H](Cc2c[nH]c3ccccc23)C(=O)N1C` (stereo partly shown) [Example 9014]: the concentration for half-maximal inhibition (IC50) lay within 0.385 to 6.74 nM in assay [1] (setting [3]) and 0.158 to 4.71 nM in assay [2] (setting [4]).
For `CCCC[C@H]1C(=O)N(C)[C@@H](CCCC)C(=O)N[C@@H](CCCNC(=N)N)C(=O)NC(C(=O)NCC(N)=O)CSCC(=O)N[C@@H](Cc2ccc(O)cc2)C(=O)N(C)[C@@H](C)C(=O)N[C@@H](CC(N)=O)C(=O)N2CCC[C@H]2C(=O)N[C@@H](Cc2cnc[nH]2)C(=O)N[C@@H](CC(C)C)C(=O)N2[C@@H](C)CC[C@H]2C(=O)N[C@@H](Cc2c[nH]c3ccccc23)C(=O)N[C@@H](CO)C(=O)N[C@@H](Cc2csc3ccccc23)C(=O)N1C` (stereo partly drawn) [Example 9015] ({CH2CO}-Y[NMeA]NPHL[Pro(5S-Me)]WS[Bta][NMeNle][NMeNle]R[ξC]G-NH2; thioether N-14), the 50% inhibitory concentration (IC50) in assay [1] (setting [3]) was in the range of 6.76 to 30.3 nM; in assay [2] (setting [4]) it was 0.158 to 4.71 nM.
Take `CCCC[C@H]1C(=O)N(C)[C@@H](CCCC)C(=O)N[C@@H](CCCNC(=N)N)C(=O)NC(C(=O)NCC(N)=O)CSCC(=O)N[C@@H](Cc2ccc(O)cc2)C(=O)N(C)[C@@H](C)C(=O)N[C@@H](CC(N)=O)C(=O)N2[C@@H](C)CC[C@H]2C(=O)N[C@@H](Cc2cnc[nH]2)C(=O)N[C@@H](CC(C)C)C(=O)N2CCC[C@H]2C(=O)N[C@@H](Cc2c[nH]c3ccccc23)C(=O)N[C@@H](CO)C(=O)N[C@@H](Cc2csc3ccccc23)C(=O)N1C` (stereo partly drawn) [Example 9016] ({CH2CO}-Y[NMeA]N[Pro(5S-Me)]HLPWS[Bta][NMeNle][NMeNle]R[ξC]G-NH2; thioether N-14): the values for the IC50 in assay [1] (setting [5]) and in assay [2] (setting [6]) were 5.94 nM and 3.28 nM, respectively.
On to `CCCC[C@H]1C(=O)N(C)[C@@H](CCCC)C(=O)N[C@@H](CCCNC(=N)N)C(=O)NC(C(=O)NCC(N)=O)CSCC(=O)N[C@@H](Cc2ccc(O)cc2)C(=O)N(C)[C@@H](C)C(=O)N[C@@H](CC(N)=O)C(=O)N2[C@@H](C)CC[C@H]2C(=O)N[C@@H](Cc2cnc[nH]2)C(=O)N[C@@H](CC(C)C)C(=O)N2CCC[C@H]2C(=O)N[C@@H](Cc2c[nH]c3ccccc23)C(=O)N[C@@H](CO)C(=O)N[C@@H](Cc2c[nH]c3ccccc23)C(=O)N1C` (stereo partly drawn) [Example 9017] ({CH2CO}-Y[NMeA]N[Pro(5S-Me)]HLPWSW[NMeNle][NMeNle]R[ξC]G-NH2; thioether N-14), for which the IC50 in assay [1] (setting [3]) was 6.76 to 30.3 nM; in assay [2] (setting [4]), 4.78 to 72.9 nM.
Consider `CCCC[C@H]1C(=O)N(C)[C@@H](CCCC)C(=O)N[C@@H](CCCNC(=N)N)C(=O)NC(C(=O)NCC(N)=O)CCSCC(=O)N[C@@H](Cc2ccc(O)cc2)C(=O)N(C)[C@@H](C)C(=O)N[C@@H](CC(N)=O)C(=O)N2CCC[C@H]2C(=O)N[C@@H](Cc2cnc[nH]2)C(=O)N[C@@H](CC(C)C)C(=O)N2CCC[C@H]2C(=O)N[C@@H](Cc2c[nH]c3ccccc23)C(=O)N[C@@H](CO)C(=O)N[C@@H](Cc2csc3ccccc23)C(=O)N1C` (stereo partly shown) [Example 9018] ({CH2CO}-Y[NMeA]NPHLPWS[Bta][NMeNle][NMeNle]R[ξhCys]G-NH2; thioether N-14), for which the half-inhibitory concentration (IC50) in assay [1] (setting [3]) is 6.76 to 30.3 nM; in assay [2] (setting [4]) it was greater than 74.3 nM.
